Tests used:
Assay type in all cases: biochemical
P38D = biological target: T1, P38D (Homo sapiens, UniProt O15264); assay: ProfilerPro Kinase Selectivity, P38D; settings: tested at 10 uM, read-out: percent inhibition of the kinase activity
T1 construct: purchased Caliper LifeSciences
Procedure: (§1) Kinome selectivity profiling was performed using two example compounds according to the manufacturer's instructions using Caliper LifeSciences' ProfilerPro Kinase Selectivity Assay Kits. Compounds prepared in Examples 1 and 7 were tested at 10 uM and data were recorded using the Caliper LabChip® EZ Reader™. Each compounds' percent inhibition of the kinase activity measured in this manner is reported in the following lists.

PKACA = biological target: T2, PKACA (Homo sapiens, UniProt P17612); assay: ProfilerPro Kinase Selectivity, PKACA; settings: tested at 10 uM, read-out: percent inhibition of the kinase activity
T2 construct: purchased Caliper LifeSciences
Procedure: as §1

FGR = biological target: T3, FGR (Homo sapiens, UniProt P09769); assay: ProfilerPro Kinase Selectivity, FGR; settings: tested at 10 uM, read-out: percent inhibition of the kinase activity
T3 construct: purchased Caliper LifeSciences
Procedure: as §1

P70S6K = biological target: T4, P70S6K (Homo sapiens, UniProt P23443); assay: ProfilerPro Kinase Selectivity, P70S6K; settings: tested at 10 uM, read-out: percent inhibition of the kinase activity
T4 construct: purchased Caliper LifeSciences
Procedure: as §1

MSK1 = biological target: T5, MSK1 (Homo sapiens, UniProt O75582); assay: ProfilerPro Kinase Selectivity, MSK1; settings: tested at 10 uM, read-out: percent inhibition of the kinase activity
T5 construct: purchased Caliper LifeSciences
Procedure: as §1

CDK3 = biological target: T6, CDK3 (Homo sapiens, UniProt Q00526); assay: ProfilerPro Kinase Selectivity, CDK3; settings: tested at 10 uM, read-out: percent inhibition of the kinase activity
T6 construct: purchased Caliper LifeSciences
Procedure: as §1

KDR = biological target: T7, KDR (Homo sapiens, UniProt P35968); assay: ProfilerPro Kinase Selectivity, KDR; settings: tested at 10 uM, read-out: percent inhibition of the kinase activity
T7 construct: purchased Caliper LifeSciences
Procedure: as §1

RET = biological target: T8, RET (Homo sapiens, UniProt P07949); assay: ProfilerPro Kinase Selectivity, RET; settings: tested at 10 uM, read-out: percent inhibition of the kinase activity
T8 construct: purchased Caliper LifeSciences
Procedure: as §1

IKKE = biological target: T9, IKKE (Homo sapiens, UniProt Q14164); assay: ProfilerPro Kinase Selectivity, IKKE; settings: tested at 10 uM, read-out: percent inhibition of the kinase activity
T9 construct: purchased Caliper LifeSciences
Procedure: as §1

[1] = biological target: T10, LRRK2 G2019S mutant kinase (Homo sapiens, UniProt Q5S007, G2019S); assay: LRRK2 G2019S LanthaScreen TR-FRET kinase assay; settings: LRRK2 G2019S GST-tagged protein, 100 μM ATP, LRRKtide substrate; read-out: IC50 (potency)
T10 construct: GST; purchased Invitrogen PV4882
Outline: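 GST-tagged enzyme with 75 nM fluorescein-ERM (LRRKtide) substrate, 100 μM ATP, 2 mM DTT, 1% DMSO final; 1 h at room temperature. Stopped with EDTA and Tb-anti-pERM antibody, 30 min, then TR-FRET read (ex 340, em 520/495 nm); IC50 and maximal inhibition derived.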

ROCK2 = biological target: T11, ROCK2 (Homo sapiens, UniProt O75116); assay: ProfilerPro Kinase Selectivity, ROCK2; settings: tested at 10 uM, read-out: percent inhibition of the kinase activity
T11 construct: purchased Caliper LifeSciences
Procedure: as §1

MAPKAPK2 = biological target: T12, MAPKAPK2 (Homo sapiens, UniProt P49137); assay: ProfilerPro Kinase Selectivity, MAPKAPK2; settings: tested at 10 uM, read-out: percent inhibition of the kinase activity
T12 construct: purchased Caliper LifeSciences
Procedure: as §1

LCK = biological target: T13, LCK (Homo sapiens, UniProt P06239); assay: ProfilerPro Kinase Selectivity, LCK; settings: tested at 10 uM, read-out: percent inhibition of the kinase activity
T13 construct: purchased Caliper LifeSciences
Procedure: as §1

AURC = biological target: T14, AURC (Homo sapiens, UniProt Q9UQB9); assay: ProfilerPro Kinase Selectivity, AURC; settings: tested at 10 uM, read-out: percent inhibition of the kinase activity
T14 construct: purchased Caliper LifeSciences
Procedure: as §1

FGFR2 = biological target: T15, FGFR2 (Homo sapiens, UniProt P21802); assay: ProfilerPro Kinase Selectivity, FGFR2; settings: tested at 10 uM, read-out: percent inhibition of the kinase activity
T15 construct: purchased Caliper LifeSciences
Procedure: as §1

DCAMKL1 = biological target: T16, DCAMKL1 (Homo sapiens, UniProt O15075); assay: ProfilerPro Kinase Selectivity, DCAMKL1; settings: tested at 10 uM, read-out: percent inhibition of the kinase activity
T16 construct: purchased Caliper LifeSciences
Procedure: as §1

TYRO3 = biological target: T17, TYRO3 (Homo sapiens, UniProt Q06418); assay: ProfilerPro Kinase Selectivity, TYRO3; settings: tested at 10 uM, read-out: percent inhibition of the kinase activity
T17 construct: purchased Caliper LifeSciences
Procedure: as §1

BLK = biological target: T18, BLK (Homo sapiens, UniProt P51451); assay: ProfilerPro Kinase Selectivity, BLK; settings: tested at 10 uM, read-out: percent inhibition of the kinase activity
T18 construct: purchased Caliper LifeSciences
Procedure: as §1

ABL1 G250E = biological target: T19, ABL1 G250E (Homo sapiens, UniProt P00519, G250E); assay: ProfilerPro Kinase Selectivity, ABL1 G250E; settings: tested at 10 uM, read-out: percent inhibition of the kinase activity
T19 construct: purchased Caliper LifeSciences
Procedure: as §1

PRKCB2 = biological target: T20, PRKCB2 (Homo sapiens, UniProt P05771); assay: ProfilerPro Kinase Selectivity, PRKCB2; settings: tested at 10 uM, read-out: percent inhibition of the kinase activity
T20 construct: purchased Caliper LifeSciences
Procedure: as §1

MST1R = biological target: T21, MST1R (Homo sapiens, UniProt Q04912); assay: ProfilerPro Kinase Selectivity, MST1R; settings: tested at 10 uM, read-out: percent inhibition of the kinase activity
T21 construct: purchased Caliper LifeSciences
Procedure: as §1

FGFR1 = biological target: T22, FGFR1 (Homo sapiens, UniProt P11362); assay: ProfilerPro Kinase Selectivity, FGFR1; settings: tested at 10 uM, read-out: percent inhibition of the kinase activity
T22 construct: purchased Caliper LifeSciences
Procedure: as §1

AMPKA2/B1/G1 = biological target: T23, AMPKA2/B1/G1 (Homo sapiens, UniProt P54646); assay: ProfilerPro Kinase Selectivity, AMPKA2/B1/G1; settings: tested at 10 uM, read-out: percent inhibition of the kinase activity
T23 construct: purchased Caliper LifeSciences
Procedure: as §1

P38B2 = biological target: T24, P38B2 (Homo sapiens, UniProt Q15759); assay: ProfilerPro Kinase Selectivity, P38B2; settings: tested at 10 uM, read-out: percent inhibition of the kinase activity
T24 construct: purchased Caliper LifeSciences
Procedure: as §1

MER = biological target: T25, MER (Homo sapiens, UniProt Q12866); assay: ProfilerPro Kinase Selectivity, MER; settings: tested at 10 uM, read-out: percent inhibition of the kinase activity
T25 construct: purchased Caliper LifeSciences
Procedure: as §1

ABL1 E255K = biological target: T26, ABL1 E255K (Homo sapiens, UniProt P00519, E255K); assay: ProfilerPro Kinase Selectivity, ABL1 E255K; settings: tested at 10 uM, read-out: percent inhibition of the kinase activity
T26 construct: purchased Caliper LifeSciences
Procedure: as §1

RSK1 = biological target: T27, RSK1 (Homo sapiens, UniProt Q15418); assay: ProfilerPro Kinase Selectivity, RSK1; settings: tested at 10 uM, read-out: percent inhibition of the kinase activity
T27 construct: purchased Caliper LifeSciences
Procedure: as §1

EPHB3 = biological target: T28, EPHB3 (Homo sapiens, UniProt P54753); assay: ProfilerPro Kinase Selectivity, EPHB3; settings: tested at 10 uM, read-out: percent inhibition of the kinase activity
T28 construct: purchased Caliper LifeSciences
Procedure: as §1

DYRK4 = biological target: T29, DYRK4 (Homo sapiens, UniProt Q9NR20); assay: ProfilerPro Kinase Selectivity, DYRK4; settings: tested at 10 uM, read-out: percent inhibition of the kinase activity
T29 construct: purchased Caliper LifeSciences
Procedure: as §1

T28 sequence (P54753 34-998, species assumed): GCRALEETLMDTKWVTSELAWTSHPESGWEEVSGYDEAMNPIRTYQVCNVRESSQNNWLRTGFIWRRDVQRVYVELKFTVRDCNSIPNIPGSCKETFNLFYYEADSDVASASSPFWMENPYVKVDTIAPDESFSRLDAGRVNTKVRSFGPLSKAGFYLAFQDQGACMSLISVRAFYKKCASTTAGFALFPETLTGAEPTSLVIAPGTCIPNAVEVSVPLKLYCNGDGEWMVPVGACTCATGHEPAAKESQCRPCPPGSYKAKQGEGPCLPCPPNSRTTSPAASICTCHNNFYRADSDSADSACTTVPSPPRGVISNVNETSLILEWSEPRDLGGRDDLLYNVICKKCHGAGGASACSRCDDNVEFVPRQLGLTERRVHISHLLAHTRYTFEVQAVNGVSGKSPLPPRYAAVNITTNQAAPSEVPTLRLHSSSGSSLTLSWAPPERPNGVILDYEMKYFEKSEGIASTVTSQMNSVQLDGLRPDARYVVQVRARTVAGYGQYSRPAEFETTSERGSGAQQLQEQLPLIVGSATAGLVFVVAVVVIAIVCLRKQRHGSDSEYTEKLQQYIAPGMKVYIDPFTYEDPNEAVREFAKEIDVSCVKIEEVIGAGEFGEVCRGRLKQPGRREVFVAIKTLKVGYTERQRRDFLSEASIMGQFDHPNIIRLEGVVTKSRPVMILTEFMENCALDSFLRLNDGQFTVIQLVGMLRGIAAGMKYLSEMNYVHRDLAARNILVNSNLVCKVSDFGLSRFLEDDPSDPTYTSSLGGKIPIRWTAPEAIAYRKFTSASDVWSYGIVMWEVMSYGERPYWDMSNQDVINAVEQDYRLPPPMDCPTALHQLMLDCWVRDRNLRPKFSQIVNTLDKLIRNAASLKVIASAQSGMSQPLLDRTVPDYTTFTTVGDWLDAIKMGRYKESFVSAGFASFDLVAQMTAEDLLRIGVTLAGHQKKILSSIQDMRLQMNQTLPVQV
T20 sequence (P05771 1-673 isoform P05771-2, species assumed): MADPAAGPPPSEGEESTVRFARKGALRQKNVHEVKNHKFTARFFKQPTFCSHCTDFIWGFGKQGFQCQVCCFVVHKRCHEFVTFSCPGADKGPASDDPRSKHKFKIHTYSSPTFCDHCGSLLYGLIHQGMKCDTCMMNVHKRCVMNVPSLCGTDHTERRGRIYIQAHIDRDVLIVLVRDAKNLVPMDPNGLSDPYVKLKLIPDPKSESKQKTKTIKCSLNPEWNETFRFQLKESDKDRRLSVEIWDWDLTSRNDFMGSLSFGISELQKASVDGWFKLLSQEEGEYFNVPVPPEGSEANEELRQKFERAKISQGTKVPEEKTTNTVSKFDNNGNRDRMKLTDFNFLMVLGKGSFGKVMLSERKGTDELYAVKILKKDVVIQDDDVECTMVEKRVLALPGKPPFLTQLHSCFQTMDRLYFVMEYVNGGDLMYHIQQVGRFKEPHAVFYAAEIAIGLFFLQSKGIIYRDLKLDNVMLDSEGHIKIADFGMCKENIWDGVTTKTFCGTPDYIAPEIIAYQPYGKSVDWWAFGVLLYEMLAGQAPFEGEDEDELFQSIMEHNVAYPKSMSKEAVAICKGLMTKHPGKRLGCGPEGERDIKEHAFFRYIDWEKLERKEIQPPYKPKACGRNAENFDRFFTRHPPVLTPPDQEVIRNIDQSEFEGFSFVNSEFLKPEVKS
T5 sequence (O75582 whole entry, species assumed): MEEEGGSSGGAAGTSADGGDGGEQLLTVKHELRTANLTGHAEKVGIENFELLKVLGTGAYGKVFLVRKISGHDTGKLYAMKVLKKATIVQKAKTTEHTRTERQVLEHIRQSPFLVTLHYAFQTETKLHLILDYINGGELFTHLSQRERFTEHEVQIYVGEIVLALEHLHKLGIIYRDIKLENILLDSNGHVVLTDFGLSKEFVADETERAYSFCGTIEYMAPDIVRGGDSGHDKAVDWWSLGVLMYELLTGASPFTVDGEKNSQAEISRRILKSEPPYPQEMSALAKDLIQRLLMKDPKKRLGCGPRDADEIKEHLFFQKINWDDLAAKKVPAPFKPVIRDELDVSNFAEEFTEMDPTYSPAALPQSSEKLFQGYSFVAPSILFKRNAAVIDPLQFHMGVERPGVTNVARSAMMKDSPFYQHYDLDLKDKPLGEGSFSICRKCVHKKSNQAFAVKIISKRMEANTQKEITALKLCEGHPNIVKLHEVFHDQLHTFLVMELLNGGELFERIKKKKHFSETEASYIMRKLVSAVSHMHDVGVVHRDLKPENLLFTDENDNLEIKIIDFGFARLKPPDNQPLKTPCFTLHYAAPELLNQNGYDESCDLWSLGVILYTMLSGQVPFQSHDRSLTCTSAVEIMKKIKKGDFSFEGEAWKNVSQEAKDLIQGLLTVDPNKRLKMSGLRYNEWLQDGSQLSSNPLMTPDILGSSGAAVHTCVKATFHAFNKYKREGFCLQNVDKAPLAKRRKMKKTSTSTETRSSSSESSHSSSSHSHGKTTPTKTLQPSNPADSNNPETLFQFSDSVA
T18 sequence (P51451 whole entry, species assumed): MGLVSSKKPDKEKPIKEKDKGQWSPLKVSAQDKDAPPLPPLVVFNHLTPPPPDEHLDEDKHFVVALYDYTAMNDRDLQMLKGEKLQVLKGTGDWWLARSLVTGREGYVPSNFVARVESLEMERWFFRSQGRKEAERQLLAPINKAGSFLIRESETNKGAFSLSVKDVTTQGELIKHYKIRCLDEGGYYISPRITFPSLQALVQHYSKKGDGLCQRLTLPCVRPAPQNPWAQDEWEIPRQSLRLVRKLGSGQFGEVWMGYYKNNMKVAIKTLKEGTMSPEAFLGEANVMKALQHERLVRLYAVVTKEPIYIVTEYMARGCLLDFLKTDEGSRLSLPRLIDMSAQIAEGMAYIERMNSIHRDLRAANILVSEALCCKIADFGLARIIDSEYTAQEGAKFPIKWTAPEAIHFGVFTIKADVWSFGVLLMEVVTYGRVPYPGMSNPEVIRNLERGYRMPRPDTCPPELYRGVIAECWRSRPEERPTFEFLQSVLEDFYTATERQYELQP
T13 sequence (P06239 whole entry, species assumed): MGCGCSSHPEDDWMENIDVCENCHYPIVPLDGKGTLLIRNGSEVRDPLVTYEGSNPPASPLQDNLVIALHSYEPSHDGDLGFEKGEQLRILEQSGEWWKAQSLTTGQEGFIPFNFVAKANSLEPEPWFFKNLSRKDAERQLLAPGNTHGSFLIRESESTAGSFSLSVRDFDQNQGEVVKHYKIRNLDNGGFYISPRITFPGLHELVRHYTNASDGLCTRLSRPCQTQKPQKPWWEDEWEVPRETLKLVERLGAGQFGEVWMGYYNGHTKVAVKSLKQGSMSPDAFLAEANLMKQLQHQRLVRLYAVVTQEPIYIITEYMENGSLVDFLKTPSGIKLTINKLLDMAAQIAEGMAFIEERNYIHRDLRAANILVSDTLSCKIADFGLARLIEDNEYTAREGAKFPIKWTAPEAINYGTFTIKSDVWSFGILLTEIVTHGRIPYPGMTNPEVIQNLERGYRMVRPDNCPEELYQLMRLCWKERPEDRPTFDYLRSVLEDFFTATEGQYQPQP
T11 sequence (O75116 whole entry, species assumed): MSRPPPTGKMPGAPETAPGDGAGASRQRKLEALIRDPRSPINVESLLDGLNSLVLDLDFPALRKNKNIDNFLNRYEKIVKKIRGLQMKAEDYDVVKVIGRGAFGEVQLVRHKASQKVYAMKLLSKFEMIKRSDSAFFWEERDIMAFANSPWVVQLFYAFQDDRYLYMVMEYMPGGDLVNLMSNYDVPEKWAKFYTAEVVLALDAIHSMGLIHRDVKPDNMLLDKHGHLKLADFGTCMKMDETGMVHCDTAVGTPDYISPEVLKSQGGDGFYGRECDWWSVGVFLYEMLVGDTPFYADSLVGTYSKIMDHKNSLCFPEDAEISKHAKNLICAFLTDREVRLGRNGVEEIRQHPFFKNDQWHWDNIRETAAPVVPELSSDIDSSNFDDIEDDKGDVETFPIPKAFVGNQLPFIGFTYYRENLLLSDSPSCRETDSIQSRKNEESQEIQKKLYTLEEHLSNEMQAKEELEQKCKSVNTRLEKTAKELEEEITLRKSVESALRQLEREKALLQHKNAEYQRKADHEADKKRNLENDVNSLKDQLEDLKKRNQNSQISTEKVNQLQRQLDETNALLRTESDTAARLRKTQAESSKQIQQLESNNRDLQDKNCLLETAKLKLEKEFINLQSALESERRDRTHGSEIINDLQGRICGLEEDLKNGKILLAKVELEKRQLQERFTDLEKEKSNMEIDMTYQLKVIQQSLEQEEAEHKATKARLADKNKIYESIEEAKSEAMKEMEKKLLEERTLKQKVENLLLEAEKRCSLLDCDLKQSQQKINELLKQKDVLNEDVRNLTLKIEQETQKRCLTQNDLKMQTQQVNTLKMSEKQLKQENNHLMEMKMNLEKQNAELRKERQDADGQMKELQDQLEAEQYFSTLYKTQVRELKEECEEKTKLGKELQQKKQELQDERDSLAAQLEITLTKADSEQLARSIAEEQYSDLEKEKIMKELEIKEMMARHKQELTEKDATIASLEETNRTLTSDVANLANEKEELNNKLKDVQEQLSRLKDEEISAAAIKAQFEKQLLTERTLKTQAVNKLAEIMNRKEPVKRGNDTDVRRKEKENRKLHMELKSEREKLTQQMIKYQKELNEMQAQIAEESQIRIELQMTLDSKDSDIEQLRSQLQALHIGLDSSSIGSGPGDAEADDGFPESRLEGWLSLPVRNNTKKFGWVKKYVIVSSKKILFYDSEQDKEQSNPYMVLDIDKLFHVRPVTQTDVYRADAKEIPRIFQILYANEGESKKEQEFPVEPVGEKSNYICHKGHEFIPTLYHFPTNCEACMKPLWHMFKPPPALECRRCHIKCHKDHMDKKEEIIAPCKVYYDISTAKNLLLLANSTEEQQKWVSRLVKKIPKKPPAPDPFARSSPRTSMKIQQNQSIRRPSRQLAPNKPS

SMILES: CSc1sc(-c2cc[nH]n2)c2c1C(=O)CCC2 [Example 1, 3-(Methylsulfanyl)-1-(1H-pyrazol-3-yl)-6,7-dihydro-2-benzothiophen-4(5H)-one]
- inhibition at 10 µM (P38D): 4.2%
- inhibition at 10 µM (PKACA): -6%
- inhibition at 10 µM (FGR): -7.2%
- inhibition at 10 µM (P70S6K): 5.7%
- inhibition at 10 µM (MSK1): 5.1%
- inhibition at 10 µM (CDK3): 21.4%
- inhibition at 10 µM (KDR): 16.4%
- inhibition at 10 µM (RET): 24.4%
- inhibition at 10 µM (IKKE): -1.5%
- IC50 [1]: 0.19 µM
- inhibition at 10 µM (ROCK2): -3.5%
- inhibition at 10 µM (MAPKAPK2): 4.1%
- inhibition at 10 µM (LCK): 4%
- inhibition at 10 µM (AURC): 27.9%
- inhibition at 10 µM (FGFR2): 4.9%
- inhibition at 10 µM (DCAMKL1): -2.5%
- inhibition at 10 µM (TYRO3): 8.6%
- inhibition at 10 µM (BLK): 6.6%
- inhibition at 10 µM (ABL1 G250E): 5%
- inhibition at 10 µM (PRKCB2): -7.4%
- inhibition at 10 µM (MST1R): -1.3%
- inhibition at 10 µM (FGFR1): 1.9%
- inhibition at 10 µM (AMPKA2/B1/G1): -2.7%
- inhibition at 10 µM (P38B2): -1.3%
- inhibition at 10 µM (MER): 23.8%
- inhibition at 10 µM (ABL1 E255K): 2.8%
- inhibition at 10 µM (RSK1): 9.5%
- inhibition at 10 µM (EPHB3): -1%
- inhibition at 10 µM (DYRK4): -1.1%

SMILES: CC1(C)CC(=O)c2c(SC3CCCC3)sc(-c3cc[nH]n3)c2C1 [Example 7, 3-(Cyclopentylsulfanyl)-6,6-dimethyl-1-(1H-pyrazol-3-yl)-6,7-dihydro-2-benzothiophen-4(5H)-one]
- inhibition at 10 µM (P38D): -0.3%
- inhibition at 10 µM (PKACA): -5.4%
- inhibition at 10 µM (FGR): -1.6%
- inhibition at 10 µM (P70S6K): -4.8%
- inhibition at 10 µM (MSK1): -2.8%
- inhibition at 10 µM (CDK3): 2.5%
- inhibition at 10 µM (KDR): -0.8%
- inhibition at 10 µM (RET): 20.7%
- inhibition at 10 µM (IKKE): 1.3%
- IC50 [1]: 0.093 µM
- inhibition at 10 µM (ROCK2): 0.9%
- inhibition at 10 µM (MAPKAPK2): 2%
- inhibition at 10 µM (LCK): 23.3%
- inhibition at 10 µM (AURC): 3.5%
- inhibition at 10 µM (FGFR2): 2.6%
- inhibition at 10 µM (DCAMKL1): -2.1%
- inhibition at 10 µM (TYRO3): 10.5%
- inhibition at 10 µM (BLK): 3.2%
- inhibition at 10 µM (ABL1 G250E): 6.4%
- inhibition at 10 µM (PRKCB2): 6.4%
- inhibition at 10 µM (MST1R): -7%
- inhibition at 10 µM (FGFR1): 7.4%
- inhibition at 10 µM (AMPKA2/B1/G1): 4.5%
- inhibition at 10 µM (P38B2): -0.7%
- inhibition at 10 µM (MER): 8%
- inhibition at 10 µM (ABL1 E255K): 7.5%
- inhibition at 10 µM (RSK1): 3.3%
- inhibition at 10 µM (EPHB3): 2.2%
- inhibition at 10 µM (DYRK4): 0.4%
